From patent US20140357512A1, “HISTONE DEACETYLASE (HDAC) BIOMARKERS IN MULTIPLE MYELOMA” (priority 2013, published 2014)

System: human myeloma cell line MM.1S
Test: SILAC acetylated-lysine peptide profiling, HDAC inhibitor vs DMSO (light/heavy ratio)
Type: cell-based
Excerpt: An embodiment of the invention comprises utilizing the SILAC method in order to quantitate changes in protein expression between two or more populations of cells. The SILAC method is a technique based on mass spectrometry that detects differences in protein abundance among samples using non-radioactive isotopic labeling. The SILAC method is known in the art, and described in detail in Ong et al., “Stable Isotope Labeling by Amino Acids in Cell Culture, SILAC, as a Simple and Accurate Approach to Expression Proteomics”, Molecular & Cellular Proteomics, vol. 1, pp. 376-386 (2002), which is incorporated herein by reference in its entirety.
Briefly, the SILAC method involves growing two populations of cells in cell culture. The first population of cells is grown in growth media containing normal amino acids (“normal media”). The second population of cells is grown in media lacking a standard essential amino acid (such as lysine), but is then supplemented with a non-radioactive, isotopically labeled form of that essential amino acid (such as lysine labeled with ^13C atoms, rather than normal ^12C atoms), which is called “heavy media”. When the two populations of cells are each growing in the medium, they incorporate the amino acids into all of their proteins. The growth of cells maintained in the heavy media is no different from that in normal media. All peptides containing the heavy amino acids are heavier than their normal counterparts. The cells from each of the two populations of cells are lysed. The lysates from each of the two cell populations are then combined. The combined cell lysates are then analyzed by mass spectrometry. Pairs of chemically identical peptides of different stable isotope composition can be differentiated in a mass spectrometer due to their difference in mass. The ratio of peak intensities in the mass spectrum for such peptide pairs reflects the abundance ratio for the two proteins.
This example describes SILAC studies that were performed to compare the effects of three different HDAC inhibitors (Compound A, Compound B, and tubastatin A) to a control on a human multiple myeloma cell line. The HDAC inhibitors were also compared amongst themselves to determine differences in their effects.
A human myeloma cell line MM.1S was grown using either ^12C (light) or ^13C (heavy) lysine containing culture medium. The “heavy” cells were treated with DMSO as the control, and the “light” cells were treated with a single HDAC inhibitor at 37° C. for 6 hours. The heavy and light cells were lysed, and the lysates were mixed in 1:1 ratio and digested with the protease trypsin. The acetylated lysine containing peptides (due to the action of the HDAC inhibitor) in the digested peptide pool were captured by a non-specific anti-acetylated lysine antibody cocktail (the antibodies identify both light and heavy acetylated peptides), and subjected to mass spectrometry analysis in order to identify thousands of individual peptides.
Thousands of peptides were identified in pairs (^12C and ^13C) due to their known mass differences. The amino acid sequence and quantitative ratio (Light/Heavy) of a given peptide in two differentially treated cell lysates were then determined and annotated with their possible protein (gene) sources.
As stated above, three HDAC inhibitors (Compound A, Compound B, and Tubastatin A) were used. Thus, the SILAC method was performed three times, with a different HDAC inhibitor compared to a control each time. Accordingly, there are three pairs of quantitative data in the table below, i.e., Compound A:DMSO, Compound B:DMSO, and Tubastatin A:DMSO. A cut-off of 1.30 fold of change (increase or decrease) was then used to determine “changed” or “+” in the table, and any peptides with a fold of change less than 1.3 fold were determined to be “unchanged” or “0” in the table. Those peptides that were not identified were marked as “NA” in the table. […]

Compound: CN1CCc2c(c3ccccc3n2Cc2ccc(C(=O)NO)cc2)C1 [Tub A]
- light to heavy ratio (L/H ratio) of acetylated peptide AVDCLLDSK(ac)WAK (SEQ ID NO: 518) (Translocation protein SEC62 [60], gene SEC62, inhibitor:DMSO): 0.00 log 2
- light to heavy ratio (L/H ratio) of acetylated peptide VK(ac)FIHDQTSPNPK (SEQ ID NO: 562) (Tricarboxylate transport protein mitochondrial [149], gene SLC25A1, inhibitor:DMSO): 0.00 log 2
- light to heavy ratio (L/H ratio), log 2 scale, acetylated peptide FGAPQK(ac)DVK (SEQ ID NO: 788) (Trifunctional enzyme subunit alpha mitochondrial [359], gene HADHA, drug:DMSO): 0.00
- light to heavy ratio (L/H ratio), log 2 scale, acetylated peptide ILQEGVDPK(ac)K (SEQ ID NO: 789) (Trifunctional enzyme subunit alpha mitochondrial [569], gene HADHA, drug:DMSO): 0.00
- light to heavy ratio (L/H ratio) of acetylated peptide VPGK(ac)DTVTK (SEQ ID NO: 308) (Trifunctional enzyme subunit beta mitochondrial [272], HADHB, drug:DMSO): 0.40 log 2
- L/H ratio of acetylated peptide VVVTK(ac)YCDPDSYHR (SEQ ID NO: 114) (U2AF2 [462], log 2 scale, drug vs DMSO): −0.43
- L/H ratio of acetylated peptide (VAILK(ac)ANLR (SEQ ID NO: 488), Transitional endoplasmic reticulum ATPase [658], VCP): 0.00 log 2
- light to heavy ratio (L/H ratio) of acetylated peptide, log 2 scale (VALEIFQHSK(ac)YK (SEQ ID NO: 183), Isoform 2 of 39S ribosomal protein L39 mitochondrial [234], MRPL39): 0.64
- L/H ratio of acetylated peptide FGIAAK(ac)YQIDPDACFSAK (SEQ ID NO: 115) (VDAC1 [224], log 2 scale, drug vs DMSO): 0.47
- L/H ratio of acetylated peptide YK(ac)WCEYGLTFTEK (SEQ ID NO: 116) (VDAC2 [63], log 2 scale, drug vs DMSO): 0.59
- L/H ratio of acetylated peptide (ac)CNTPTYCDLGK(ac)AAK (SEQ ID NO: 6) (VDAC3 [12], log 2 scale, drug vs DMSO): 0.52
- L/H ratio of acetylated peptide YK(ac)VCNYGLTFTQK (SEQ ID NO: 117) (VDAC3 [63], log 2 scale, drug vs DMSO): 0.40
- L/H ratio of acetylated peptide (VIIVVK(ac)DGPGFYTTR (SEQ ID NO: 401), Trifunctional enzyme subunit alpha mitochondrial [540], HADHA): 0.00 log 2
- L/H ratio of acetylated peptide TNEK(ac)VELQELNDR (SEQ ID NO: 122) (VIM [104], log 2 scale, drug vs DMSO): −0.59
- L/H ratio of acetylated peptide FANYIDK(ac)VR (SEQ ID NO: 118) (VIM [120], log 2 scale, drug vs DMSO): −0.65
- L/H ratio of acetylated peptide ILLAELEQLK(ac)GQGK (SEQ ID NO: 119) (VIM [139], log 2 scale, drug vs DMSO): −0.82
- L/H ratio of acetylated peptide SK(ac)FADLSEAANR (SEQ ID NO: 121) (VIM [294], log 2 scale, drug vs DMSO): −0.60
- L/H ratio of acetylated peptide LQDEIQNMK(ac)EEMAR (SEQ ID NO: 120) (VIM [373], log 2 scale, drug vs DMSO): −0.72
- light to heavy ratio (L/H ratio) of acetylated peptide, log 2 scale (VLK(ac)GNTAEGCVHETQEK (SEQ ID NO: 186), Isoform 1 of Myb-binding protein 1A [935], MYBBP1A): −0.43
- light to heavy ratio (L/H ratio) of acetylated peptide, log 2 scale (VLPSIVNEVLK(ac)SVVAK (SEQ ID NO: 195), Prohibitin-2 [142], PHB2): 1.00
- light to heavy ratio (L/H ratio) of acetylated peptide, log 2 scale (VNLQNNPGAMEHFHMK(ac)LFR (SEQ ID NO: 136), B-cell receptor-associated protein 31 [95], BCAP31): 0.52
- light to heavy ratio (L/H ratio) of acetylated peptide, log 2 scale (VTEK(ac)IPVR (SEQ ID NO: 168), Isoform Short of Heterogeneous nuclear ribonucleoprotein U [324], HNRNPU): −0.76
- light to heavy ratio (L/H ratio) of acetylated peptide, log 2 scale (VVVGK(ac)TFDSIVMDPK (SEQ ID NO: 193), Protein disulfide-isomerase A4 [533], PDIA4): −0.80
- light to heavy ratio (L/H ratio) of acetylated peptide DLQQYQSQAK(ac)QLFR (SEQ ID NO: 321) (Vesicle-trafficking protein SEC22b [38], SEC22B, drug:DMSO): 0.46 log 2
- light to heavy ratio (L/H ratio) of acetylated peptide TLLIK(ac)TVETR (SEQ ID NO: 269) (Vimentin [445], VIM, drug:DMSO): −0.54 log 2
- light to heavy ratio (L/H ratio) of acetylated peptide, log 2 scale (WVFK(ac)EEGVLR (SEQ ID NO: 150), Dolichyl-diphosphooligosaccharide--protein glycosyltransferase 48 kDa subunit [301], DDOST): −0.53
- light to heavy ratio (L/H ratio) of acetylated peptide KQELLEALTK(ac)HFQD (SEQ ID NO: 355) (X-ray repair cross-complementing protein 6 [605], XRCC6, drug:DMSO): 0.00 log 2
- L/H ratio of acetylated peptide ALQEK(ac)VEIK (SEQ ID NO: 123) (XRCC5 [665], log 2 scale, drug vs DMSO): −0.46
- light to heavy ratio (L/H ratio) of acetylated peptide, log 2 scale (YGPFVADFADK(ac)LNEQK (SEQ ID NO: 134), ATP synthase subunit b mitochondrial [126], ATP5F1): −0.45
- light to heavy ratio (L/H ratio) of acetylated peptide, log 2 scale (YIAK(ac)QESVEER (SEQ ID NO: 140), Isoform 3 of Coiled-coil domain-containing protein 144A [754], CCDC144A): −0.42
- light to heavy ratio (L/H ratio) of acetylated peptide, log 2 scale (YLENGK(ac)ETLQR (SEQ ID NO: 163), Putative HLA class I histocompatibility antigen alpha chain H [200], HLA-H): −0.46
- light to heavy ratio (L/H ratio) of acetylated peptide, log 2 scale (YLLYGEK(ac)GTGK (SEQ ID NO: 147), 28S ribosomal protein S29 mitochondrial [130], DAP3): 0.46
- light to heavy ratio (L/H ratio) of acetylated peptide YFLDK(ac)TLTSR (SEQ ID NO: 293) ([3-methyl-2-oxobutanoate dehydrogenase [lipoamide]] kinase mitochondrial [192], BCKDK, drug:DMSO): 0.50 log 2
- light to heavy ratio (L/H ratio) of acetylated peptide, log 2 scale ([…](ac)PER (SEQ ID NO: 219), cDNA FLJ59739 highly similar to Protein transport protein Sec61 subunit alpha isoform 1 [27], SEC61A1): 0.49
- light to heavy ratio (L/H ratio) of acetylated peptide SAYFAEK(ac)LYK (SEQ ID NO: 292) (annexin A4 [255], ANXA4, drug:DMSO): 0.62 log 2
- light to heavy ratio (L/H ratio) of acetylated peptide ILMSK(ac)PVLSGGTGR (SEQ ID NO: 291) (cDNA FLJ55380 highly similar to Protein kinase C-binding protein 1 [440], ZMYND8, drug:DMSO): 0.65 log 2
- light to heavy ratio (L/H ratio) of acetylated peptide YDGK(ac)WEVEEMK (SEQ ID NO: 274) (cDNA FLJ55574 highly similar to Calnexin [138], CANX, drug:DMSO): −0.49 log 2
- light to heavy ratio (L/H ratio) of acetylated peptide LNK(ac)PFLFDTK (SEQ ID NO: 327) (cDNA FLJ55574 highly similar to Calnexin [172], CANX, drug:DMSO): 0.00 log 2
- light to heavy ratio (L/H ratio) of acetylated peptide LLASK(ac)SLLNR (SEQ ID NO: 322) (cDNA FLJ56303 highly similar to Translocon-associated protein subunit beta [46], SSR2, drug:DMSO): −0.59 log 2
- light to heavy ratio (L/H ratio) of acetylated peptide IINEVSK(ac)PLAHHIPVEK (SEQ ID NO: 341) (cDNA FLJ77177 highly similar to Homo sapiens arginine-rich mutated in early stage tumors (ARMET) mRNA [97], MANF, drug:DMSO): 0.00 log 2
- light to heavy ratio (L/H ratio) of acetylated peptide TNVPVK(ac)LFAR (SEQ ID NO: 348) (cDNA FLJ77422 highly similar to Homo sapiens RNA binding protein autoantigenic (hnRNP-associated with lethal yellow homolog (mouse)) transcript variant 1 mRNA (Fragment) [165], RALY, drug:DMSO): 0.00 log 2
- light to heavy ratio (L/H ratio) of acetylated peptide GSK(ac)FYGPAGPYGIFAGR (SEQ ID NO: 265) (membrane-associated progesterone receptor component 2 [159], PGRMC2, drug:DMSO): −0.45 log 2
- light to heavy ratio (L/H ratio) of acetylated peptide SK(ac)SDPIMLLK (SEQ ID NO: 255) (pyruvate dehydrogenase E1 component subunit alpha somatic form mitochondrial isoform 2 precursor [351], PDHA1, drug:DMSO): 0.52 log 2
- light to heavy ratio (L/H ratio) of acetylated peptide LTSLNVK(ac)YNNDK (SEQ ID NO: 590) (regulator of differentiation 1 isoform 2 [236], gene ROD1, inhibitor:DMSO): 0.00 log 2
- light to heavy ratio (L/H ratio) of acetylated peptide GWLK(ac)SNVSDAVAQSTR (SEQ ID NO: 278) (triosephosphate isomerase isoform 2 [231], TPI1, TPI1P1, drug:DMSO): −0.41 log 2
